According to patent US20140113958A1, “HCV Combination Therapy” (priority 2011, published 2014):
Like-named read-outs stand apart in the source and are kept apart here.

How the values were obtained:
[1] = system: HCV genotype 1b replicon NS5A Y93H; type: cell-based; settings: EC50 mutant / EC50 wild-type; mean of two experiments (individual values)
Procedure: (§1) The in vitro antiviral of miravirsen was evaluated against wild-type HCV genotype 1b replicon and HCV genotype 1b replicons constructed to contain key amino acid substitutions in NS3 protease (A156T, R155K), NS5B polymerase (S282T, M423I) and NS5A protein (Y93H) in transient transfection assays utilizing Huh 7 cells. […] Huh 7 cells were transfected with either the wild-type or the mutant RNA constructs by electroporation. Luciferase activity was measured 72 hours after compound treatment and EC50 values determined from dose-response curves. Fold resistance was expressed as the ratio of the EC50 for mutant HCV replicon to the EC50 for wild-type HCV replicon.
(§2) The in vitro antiviral of miravirsen was evaluated against wild-type HCV genotype 1b replicon and HCV replicons constructed to contain key amino acid substitutions in NS3 protease (A156T, R155K), NS5B polymerase (S282T, M423I) and NS5A protein (Y93H) in transient transfection assays. […] Huh 7 cells were transfected with either the wild type or the mutant RNA constructs by electroporation. Luciferase activity was measured 72 hours after compound treatment and EC50 values determined from dose-response curves. Fold resistance was expressed as the ratio of the EC50 for mutant HCV replicon to the EC50 for wild-type HCV replicon. Results are expressed as the mean of two individual experiments. In an initial set of experiments, the standard protocol was modified by adding compounds 24 hours after electroporation. […] In a third experiment cells were pretreated with miravirsen for 24 hours before electroporation with wild-type RNA constructs to determine if preincubation could result in increased miravirsen antiviral activity.

[2] = system: HCV genotype 1b replicon NS5B M423I; type: cell-based; settings: EC50 mutant / EC50 wild-type; mean of two experiments (individual values)
Procedure: as §1, §2

cytochrome 450 = assay: Metabolism by cytochrome 450 mechanisms; type: in vitro ADME
[3] = system: wild-type HCV genotype 1b replicon; assay: Transient transfection replicon assay in Huh 7 cells (luciferase, 72 hours), wild-type; type: cell-based
[4] = compared with interferon alpha-2b
HCV = HCV RNA suppression in vivo
[5] = system: drug-resistant HCV genotype 1b replicons (NS3, NS5A, NS5B)
Procedure: as §1
The in vitro antiviral of miravirsen was evaluated against wild-type HCV genotype 1b replicon and HCV replicons constructed to contain key amino acid substitutions in NS3 protease (A156T, R155K), NS5B polymerase (S282T, M423I) and NS5A protein (Y93H) in transient transfection assays. […] Huh 7 cells were transfected with either the wild type or the mutant RNA constructs by electroporation. Luciferase activity was measured 72 hours after compound treatment and EC50 values determined from dose-response curves. Fold resistance was expressed as the ratio of the EC50 for mutant HCV replicon to the EC50 for wild-type HCV replicon. Results are expressed as the mean of two individual experiments. […]

For “5′-^mCs^ocsAs^otstsGs^oTs^ocsas^mCs^oas^mCs^ots^mCs^omC^o-3′ (CCATTGTCACACTCC; all phosphorothioate, sugars by position and methylation of C not given here; further chemistry not fully specified) [miravirsen]”, the “fold change in susceptibility, NS5A Y93H” value [1] was 0.9 (0.8, 0.9) fold, the “fold change in susceptibility, NS5B M423I” value [2] was 1.7 (2.3, 1.0) fold and the “metabolism by cytochrome 450 mechanisms” value (cytochrome 450) was “not metabolized by cytochrome 450 mechanisms”. The EC50 ([3]; Huh 7 cells preincubated with miravirsen 24 hours before electroporation with wild-type RNA, read-out: EC50) was 25.6 µM, the EC50 ([3]; wild-type HCV, transient transfection assays, read-out: average EC50) was 36.7 µM and the therapeutic index [4] was “at least an order of magnitude greater than interferon alpha-2b”. The “HCV RNA suppression in vivo” value (HCV) was “long-lasting HCV RNA suppression without emergence of resistance”, the “fold changes in resistance” value ([5]; all drug-resistant HCV variants tested) was “less than 2 fold” and the “antiviral activity against drug-resistant replicons” value ([5]; replicons resistant to NS3, NS5A and NS5B inhibitors) was “broad antiviral activity”.
